Measured values taken from the supplement of paper PMC10627819.

Experiments:
B. subtilis 168 [1] = experiment: fitness (endpoint OD595 vs no drug) (fraction); higher = more growth
Outline: (§1)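 Growth medium was TSB, LB Lennox or CY, and plates were kept at 37 °C. Inoculation was at OD595 0.01 in 384-well plates, at 30 µl per well or 55 µl for S. pneumoniae. OD595 was monitored every 30 min for 14 h and background-subtracted using the first reading. Fitness is the optical density on entering stationary phase divided by the robust mean of no-drug controls, with values capped at 1.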

S. pneumoniae D39V [2] = experiment: as above
Outline: as §1

S. aureus DSM 20231 [3] = experiment: as above
Outline: as §1

S. aureus Newman [4] = experiment: as above
Outline: as §1

B. subtilis 168 [5] = experiment: Bliss interaction score (quartile over a dose matrix) (fitness difference); higher = more antagonism (negative = synergy)
Outline: (§2)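 The Bliss score subtracts expected fitness, the product of the single-drug fitness values, from observed fitness. Fitness is plate-normalised OD595 at entry into stationary phase, relative to the robust no-drug mean and capped at 1, with single-drug fitness inferred from combinations. Summaries are quartiles over technical, biological and donor/recipient replicates.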

S. pneumoniae D39V [6] = experiment: as above
Outline: as §2

S. aureus DSM 20231 [7] = experiment: as above
Outline: as §2

S. aureus Newman [8] = experiment: as above
Outline: as §2
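Throughout, for Bliss interaction score (quartile over a dose matrix): first quartile when negative (synergy) and third quartile when positive (antagonism).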

CO/N=C(\C(=O)N[C@@H]1C(=O)N2C(C(=O)O)=C(COC(C)=O)CS[C@H]12)c1csc(N)n1 [Cefotaxime] + CN1C2=CC=CC=C2N=C3C1=CC=CC3=O [Pyocyanin]
fitness, one replicate
Conditions	partner 1.25 µg/mL	partner 2.5 µg/mL	partner 5 µg/mL
B. subtilis 168 [1], first compound 0.00775 µg/mL	0.775	0.712	0.534
B. subtilis 168 [1], first compound 0.0155 µg/mL	0.665	0.543	0.407
B. subtilis 168 [1], first compound 0.031 µg/mL	0.522	0.462	0.35
S. aureus DSM 20231 [3], first compound 0.039 µg/mL	0.748	0.738	0.512
S. aureus Newman [4], first compound 0.039 µg/mL	0.677	0.696	0.424
S. aureus Newman [4], first compound 0.625 µg/mL	0.0517	0.0483	0.0237
S. aureus Newman [4], first compound 1.25 µg/mL	0.0559	0.0861	0.0706
S. aureus Newman [4], first compound 2.5 µg/mL	0.0452	0.0518	0.0704

fitness
Conditions	partner 0.325 µg/mL	partner 0.65 µg/mL	partner 1.25 µg/mL	partner 1.3 µg/mL	partner 2.5 µg/mL	partner 5 µg/mL
B. subtilis 168 [1], first compound 0.5 µg/mL	–	–	0.291	–	0.264	0.229
B. subtilis 168 [1], first compound 1 µg/mL	–	–	0.144	–	0.102	0.111
B. subtilis 168 [1], first compound 2 µg/mL	–	–	0.0757	–	0.0908	0.0747
S. aureus DSM 20231 [3], first compound 0.078 µg/mL	–	–	0.746	–	0.766	0.55
S. aureus DSM 20231 [3], first compound 0.156 µg/mL	–	–	0.757	–	0.746	0.511
S. aureus DSM 20231 [3], first compound 0.312 µg/mL	–	–	0.676	–	0.671	0.474
S. aureus Newman [4], first compound 0.078 µg/mL	–	–	0.671	–	0.654	0.399
S. aureus Newman [4], first compound 0.156 µg/mL	–	–	0.527	–	0.552	0.354
S. aureus Newman [4], first compound 0.312 µg/mL	–	–	0.311	–	0.319	0.204
S. pneumoniae D39V [2], first compound 0.0018 µg/mL	0.992	≥ 1	–	0.904	–	–
S. pneumoniae D39V [2], first compound 0.0035 µg/mL	0.98	≥ 1	–	0.871	–	–
S. pneumoniae D39V [2], first compound 0.007 µg/mL	0.934	0.947	–	0.839	–	–

Conditions	Bliss interaction score
B. subtilis 168 [5]	0.0372
S. aureus DSM 20231 [7]	0.0641
S. aureus Newman [8]	0.0647
S. pneumoniae D39V [6]	0.0458

COc1cccc2c1C(=O)c1c(O)c3c(c(O)c1C2=O)C[C@@](O)(C(=O)CO)C[C@@H]3O[C@H]1C[C@H](N)[C@H](O)[C@H](C)O1 [Doxorubicin] + Cc1cc(NS(=O)(=O)c2ccc(N)cc2)no1 [Sulfamethoxazol]
fitness, one replicate
Conditions	first compound 0.625 µg/mL	first compound 1.25 µg/mL	first compound 2.5 µg/mL
B. subtilis 168 [1], partner 0.5 µg/mL	0.938	0.883	0.969
S. aureus Newman [4], partner 8 µg/mL	0.887	0.877	0.875

fitness
Conditions	first compound 0.25 µg/mL	first compound 0.5 µg/mL	first compound 0.625 µg/mL	first compound 1 µg/mL	first compound 1.25 µg/mL	first compound 2.5 µg/mL
B. subtilis 168 [1], partner 1 µg/mL	–	–	0.929	–	0.885	0.723
B. subtilis 168 [1], partner 2 µg/mL	–	–	0.878	–	0.865	0.665
B. subtilis 168 [1], partner 4 µg/mL	–	–	≥ 1	–	0.893	0.695
S. aureus DSM 20231 [3], partner 1 µg/mL	–	–	0.831	–	0.791	0.737
S. aureus DSM 20231 [3], partner 2 µg/mL	–	–	0.83	–	0.911	0.869
S. aureus DSM 20231 [3], partner 4 µg/mL	–	–	0.812	–	0.874	0.845
S. aureus Newman [4], partner 1 µg/mL	–	–	0.852	–	0.816	0.758
S. aureus Newman [4], partner 2 µg/mL	–	–	0.856	–	0.802	0.765
S. aureus Newman [4], partner 4 µg/mL	–	–	0.854	–	0.835	0.787
S. pneumoniae D39V [2], partner 1 µg/mL	0.943	0.93	–	0.904	–	–
S. pneumoniae D39V [2], partner 2 µg/mL	0.949	0.97	–	0.936	–	–
S. pneumoniae D39V [2], partner 4 µg/mL	0.965	0.954	–	0.92	–	–

Conditions	Bliss interaction score
B. subtilis 168 [5]	0.0735
S. aureus DSM 20231 [7]	-0.0832
S. aureus Newman [8]	-0.0666
S. pneumoniae D39V [6]	0.0685

COc1cccc2c1C(=O)c1c(O)c3c(c(O)c1C2=O)C[C@@](O)(C(=O)CO)C[C@@H]3O[C@H]1C[C@H](N)[C@H](O)[C@H](C)O1 [Doxorubicin] + COc1c(N2C[C@@H]3CCCN[C@@H]3C2)c(F)cc2c(=O)c(C(=O)O)cn(C3CC3)c12 [Moxifloxacin]
fitness
Conditions	first compound 0.25 µg/mL	first compound 0.5 µg/mL	first compound 0.625 µg/mL	first compound 1 µg/mL	first compound 1.25 µg/mL	first compound 2.5 µg/mL
B. subtilis 168 [1], partner 0.0312 µg/mL	–	–	0.0436	–	0.0321	0.0239
B. subtilis 168 [1], partner 0.0625 µg/mL	–	–	0.0396	–	0.0329	0.0327
B. subtilis 168 [1], partner 0.125 µg/mL	–	–	0.0249	–	0.0462	0.026
B. subtilis 168 [1], partner 2 µg/mL	–	–	0.0338	–	0.0341	0.0223
B. subtilis 168 [1], partner 4 µg/mL	–	–	0.0299	–	0.0351	0.0369
B. subtilis 168 [1], partner 8 µg/mL	–	–	0.0347	–	0.0318	0.0314
S. aureus DSM 20231 [3], partner 0.0075 µg/mL	–	–	0.751	–	0.78	0.735
S. aureus DSM 20231 [3], partner 0.015 µg/mL	–	–	0.759	–	0.764	0.706
S. aureus DSM 20231 [3], partner 0.03 µg/mL	–	–	0.623	–	0.631	0.618
S. aureus Newman [4], partner 0.0075 µg/mL	–	–	0.756	–	0.722	0.659
S. aureus Newman [4], partner 0.015 µg/mL	–	–	0.66	–	0.667	0.611
S. pneumoniae D39V [2], partner 0.005 µg/mL	0.916	0.919	–	0.812	–	–
S. pneumoniae D39V [2], partner 0.01 µg/mL	0.955	0.911	–	0.857	–	–
S. pneumoniae D39V [2], partner 0.02 µg/mL	0.894	0.822	–	0.779	–	–
S. pneumoniae D39V [2], partner 0.0312 µg/mL	0.0684	0.0433	–	0.0394	–	–
S. pneumoniae D39V [2], partner 0.0625 µg/mL	0.0549	0.0614	–	0.0753	–	–
S. pneumoniae D39V [2], partner 0.125 µg/mL	0.0583	0.0523	–	0.0416	–	–

fitness, S. aureus DSM 20231 [3], one replicate
Conditions	first compound 0.625 µg/mL	first compound 1.25 µg/mL	first compound 2.5 µg/mL
partner 0.06 µg/mL	0.664	0.655	0.638
partner 0.12 µg/mL	0.575	0.531	0.537

Conditions	Bliss interaction score
B. subtilis 168 [5]	-0.0247
S. aureus DSM 20231 [7]	0.0448
S. aureus Newman [8]	0.177
S. pneumoniae D39V [6]	-0.0668
